This passage reports remaining activity results from article PMC5564600 (Oncotarget, 2017).

Common to all, as to test: biochemical
What all share (assay type): binding

The target of test [1] is T1, panel of 442 kinases (Homo sapiens, UniProt P04629).
T1 construct: purchased Ambit Biosciences (scanMAXX KINOMEscan)
The note with it: kinase TRKA; for remaining activity at 1 µM: read-out: TRKA (% of control at 1 µM).

Test [2] concerns the target T2, panel of 442 kinases (Homo sapiens, UniProt Q6ZN16).
T2 construct: purchased Ambit Biosciences (scanMAXX KINOMEscan)
T2 sequence (Q6ZN16 1-1313): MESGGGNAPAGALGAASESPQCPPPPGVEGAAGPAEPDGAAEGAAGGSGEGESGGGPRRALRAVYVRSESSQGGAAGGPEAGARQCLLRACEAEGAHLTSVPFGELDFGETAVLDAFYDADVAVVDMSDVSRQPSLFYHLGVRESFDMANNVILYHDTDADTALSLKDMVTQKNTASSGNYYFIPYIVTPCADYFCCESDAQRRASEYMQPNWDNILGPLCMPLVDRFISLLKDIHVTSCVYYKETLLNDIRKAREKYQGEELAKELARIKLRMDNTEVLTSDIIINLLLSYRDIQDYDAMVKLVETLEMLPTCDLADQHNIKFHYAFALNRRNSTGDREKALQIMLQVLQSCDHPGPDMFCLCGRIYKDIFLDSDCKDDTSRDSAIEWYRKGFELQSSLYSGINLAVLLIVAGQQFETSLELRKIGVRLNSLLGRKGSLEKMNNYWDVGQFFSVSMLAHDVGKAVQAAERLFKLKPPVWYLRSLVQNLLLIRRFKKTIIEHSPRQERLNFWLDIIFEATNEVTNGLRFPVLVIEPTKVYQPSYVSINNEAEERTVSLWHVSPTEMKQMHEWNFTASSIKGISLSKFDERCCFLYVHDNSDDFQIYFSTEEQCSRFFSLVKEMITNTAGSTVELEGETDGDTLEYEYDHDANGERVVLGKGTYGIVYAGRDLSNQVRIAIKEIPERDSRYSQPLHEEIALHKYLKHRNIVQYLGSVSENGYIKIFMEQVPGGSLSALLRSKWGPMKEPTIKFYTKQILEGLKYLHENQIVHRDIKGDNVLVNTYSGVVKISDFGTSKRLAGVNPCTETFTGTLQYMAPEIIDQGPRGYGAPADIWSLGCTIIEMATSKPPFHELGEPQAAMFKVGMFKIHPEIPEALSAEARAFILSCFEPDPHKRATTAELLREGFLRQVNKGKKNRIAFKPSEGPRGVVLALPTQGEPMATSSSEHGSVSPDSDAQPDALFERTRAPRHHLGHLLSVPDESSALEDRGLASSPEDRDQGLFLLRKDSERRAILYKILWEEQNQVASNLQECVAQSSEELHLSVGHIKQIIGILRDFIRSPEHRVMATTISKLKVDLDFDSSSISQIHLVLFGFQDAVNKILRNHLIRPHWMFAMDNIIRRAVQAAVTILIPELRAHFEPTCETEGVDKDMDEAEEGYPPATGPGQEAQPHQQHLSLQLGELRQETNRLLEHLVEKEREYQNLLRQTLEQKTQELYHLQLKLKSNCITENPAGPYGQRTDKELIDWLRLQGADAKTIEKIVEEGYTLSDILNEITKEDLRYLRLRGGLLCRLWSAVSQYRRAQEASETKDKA
The note with it: kinase MAP3K15; for remaining activity at 1 µM: read-out: % of control at 1 µM.

Test [3] has as its target T3, panel of 442 kinases (Homo sapiens, UniProt P48729).
T3 construct: purchased Ambit Biosciences (scanMAXX KINOMEscan)
The note with it: CSNK1A1; for remaining activity at 1 µM: read-out: % of control at 1 µM.

The target in test [4] is T4, panel of 442 kinases (Homo sapiens, UniProt Q14289).
T4 construct: purchased Ambit Biosciences (scanMAXX KINOMEscan)
T4 sequence (Q14289 whole entry): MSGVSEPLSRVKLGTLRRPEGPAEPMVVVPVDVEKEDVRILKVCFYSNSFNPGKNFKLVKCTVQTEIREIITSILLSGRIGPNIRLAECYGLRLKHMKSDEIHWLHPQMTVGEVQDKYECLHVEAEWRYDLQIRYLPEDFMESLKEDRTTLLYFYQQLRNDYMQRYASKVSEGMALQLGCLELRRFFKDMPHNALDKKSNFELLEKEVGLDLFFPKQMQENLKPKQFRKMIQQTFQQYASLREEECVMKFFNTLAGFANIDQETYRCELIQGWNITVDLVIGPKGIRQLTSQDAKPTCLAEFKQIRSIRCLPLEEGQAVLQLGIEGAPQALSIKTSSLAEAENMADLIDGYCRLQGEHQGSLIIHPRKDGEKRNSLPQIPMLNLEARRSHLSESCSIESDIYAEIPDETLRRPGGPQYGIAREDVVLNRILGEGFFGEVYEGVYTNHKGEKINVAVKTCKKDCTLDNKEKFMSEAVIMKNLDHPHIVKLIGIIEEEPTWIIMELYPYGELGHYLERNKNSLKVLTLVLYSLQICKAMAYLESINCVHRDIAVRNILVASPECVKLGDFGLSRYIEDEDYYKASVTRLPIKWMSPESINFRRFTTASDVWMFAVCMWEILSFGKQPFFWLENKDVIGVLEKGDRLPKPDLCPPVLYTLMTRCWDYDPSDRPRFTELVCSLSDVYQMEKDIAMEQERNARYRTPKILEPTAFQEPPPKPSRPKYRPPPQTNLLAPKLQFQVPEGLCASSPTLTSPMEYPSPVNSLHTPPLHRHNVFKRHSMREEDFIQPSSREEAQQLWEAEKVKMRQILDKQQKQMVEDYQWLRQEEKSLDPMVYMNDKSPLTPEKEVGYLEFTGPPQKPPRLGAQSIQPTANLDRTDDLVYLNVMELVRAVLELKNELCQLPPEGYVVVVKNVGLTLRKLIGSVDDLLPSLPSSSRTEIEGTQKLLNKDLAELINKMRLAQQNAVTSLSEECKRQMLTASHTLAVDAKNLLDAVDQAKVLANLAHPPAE
The note with it: kinase PYK2; for remaining activity at 1 µM: read-out: PYK2 (% of control at 1 µM).

The target of test [5] is T5, panel of 442 kinases (Homo sapiens, UniProt Q06418).
T5 construct: purchased Ambit Biosciences (scanMAXX KINOMEscan)
T5 sequence (Q06418 41-890): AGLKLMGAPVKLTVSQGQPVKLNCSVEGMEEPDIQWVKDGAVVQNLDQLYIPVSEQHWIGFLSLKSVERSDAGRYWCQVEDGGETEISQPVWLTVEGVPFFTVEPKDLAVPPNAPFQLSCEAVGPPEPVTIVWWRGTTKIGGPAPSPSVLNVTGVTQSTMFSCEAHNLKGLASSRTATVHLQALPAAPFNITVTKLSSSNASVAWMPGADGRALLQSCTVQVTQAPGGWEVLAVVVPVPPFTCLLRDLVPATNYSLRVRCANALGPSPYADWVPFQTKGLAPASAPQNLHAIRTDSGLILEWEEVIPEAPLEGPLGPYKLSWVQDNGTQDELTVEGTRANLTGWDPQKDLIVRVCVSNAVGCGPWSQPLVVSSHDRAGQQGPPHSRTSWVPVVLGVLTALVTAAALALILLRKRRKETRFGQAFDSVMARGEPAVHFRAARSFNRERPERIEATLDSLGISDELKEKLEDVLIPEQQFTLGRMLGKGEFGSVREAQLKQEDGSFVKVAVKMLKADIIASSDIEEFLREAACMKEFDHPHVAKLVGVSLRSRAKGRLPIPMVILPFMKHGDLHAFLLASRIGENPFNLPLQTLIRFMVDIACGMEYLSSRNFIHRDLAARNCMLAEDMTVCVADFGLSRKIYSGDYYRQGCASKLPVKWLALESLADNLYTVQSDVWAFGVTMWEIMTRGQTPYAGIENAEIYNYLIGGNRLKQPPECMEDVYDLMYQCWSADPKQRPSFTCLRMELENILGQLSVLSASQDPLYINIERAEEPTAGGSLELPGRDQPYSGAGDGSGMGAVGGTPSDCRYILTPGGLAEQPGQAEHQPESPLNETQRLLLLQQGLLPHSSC
The note with it: kinase TYRO3; for remaining activity at 1 µM: read-out: TYRO3 (% of control at 1 µM).

Setting [6] is: 10 µM, read-out: % of control at 10 µM.

T3 sequence (P48729 whole entry): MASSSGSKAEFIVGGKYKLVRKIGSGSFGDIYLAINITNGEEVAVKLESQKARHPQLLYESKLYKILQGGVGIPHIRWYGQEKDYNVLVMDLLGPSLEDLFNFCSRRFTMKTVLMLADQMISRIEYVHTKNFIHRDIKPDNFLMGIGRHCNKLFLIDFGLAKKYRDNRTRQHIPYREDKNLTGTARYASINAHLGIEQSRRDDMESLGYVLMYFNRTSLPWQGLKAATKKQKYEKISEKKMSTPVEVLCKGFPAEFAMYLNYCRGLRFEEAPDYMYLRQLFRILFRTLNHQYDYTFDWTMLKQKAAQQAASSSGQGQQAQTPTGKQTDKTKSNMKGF
T1 sequence (P04629 33-796): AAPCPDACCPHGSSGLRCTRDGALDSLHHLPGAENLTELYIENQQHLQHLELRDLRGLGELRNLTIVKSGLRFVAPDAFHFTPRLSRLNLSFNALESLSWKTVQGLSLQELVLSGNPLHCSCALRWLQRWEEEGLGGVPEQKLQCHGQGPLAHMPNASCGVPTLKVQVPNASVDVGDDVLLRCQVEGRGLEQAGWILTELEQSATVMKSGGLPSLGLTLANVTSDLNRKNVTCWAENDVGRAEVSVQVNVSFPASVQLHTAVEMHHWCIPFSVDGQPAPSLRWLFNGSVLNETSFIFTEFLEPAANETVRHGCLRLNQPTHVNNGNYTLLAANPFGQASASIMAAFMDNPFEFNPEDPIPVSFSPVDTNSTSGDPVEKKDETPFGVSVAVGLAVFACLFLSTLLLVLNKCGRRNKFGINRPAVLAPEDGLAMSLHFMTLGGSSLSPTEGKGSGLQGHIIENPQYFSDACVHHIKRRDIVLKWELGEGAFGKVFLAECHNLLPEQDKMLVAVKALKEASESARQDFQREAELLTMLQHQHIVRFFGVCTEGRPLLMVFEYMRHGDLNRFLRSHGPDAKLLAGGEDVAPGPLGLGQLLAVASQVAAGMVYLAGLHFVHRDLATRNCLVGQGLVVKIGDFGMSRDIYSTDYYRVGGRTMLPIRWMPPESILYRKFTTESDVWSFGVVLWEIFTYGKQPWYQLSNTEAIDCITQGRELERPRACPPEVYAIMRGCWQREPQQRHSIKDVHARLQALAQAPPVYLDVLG

Take `COc1ncc(-c2ccc3nccc(-c4ccnnc4)c3c2)cc1NS(=O)(=O)c1ccc(F)cc1F` [Omipalisib]: the remaining activity at 1 µM at panel of 442 kinases [1] was determined as 80%; on panel of 442 kinases [2] it was 90%; at panel of 442 kinases [3] it was 100%; on panel of 442 kinases [4], 100%; at panel of 442 kinases [5], 100%.
With `Cn1c(=O)n(-c2ccc(C(C)(C)C#N)cc2)c2c3cc(-c4cnc5ccccc5c4)ccc3ncc21` [Dactolisib, 2-methyl-2-[4-(3-methyl-2-oxo-8-quinolin-3-yl-2,3-dihydroimidazo[4,5-c]quinolin-1-yl)-phenyl] propionitrile], the remaining activity at 1 µM came out at 100% at panel of 442 kinases [2], 99% on panel of 442 kinases [3], 86% at panel of 442 kinases [4] and 100% at panel of 442 kinases [5].
As for `Nc1cc(C(F)(F)F)c(-c2cc(N3CCOCC3)nc(N3CCOCC3)n2)cn1` [Buparlisib], the remaining activity at 1 µM on panel of 442 kinases [1] is 97%; on panel of 442 kinases [2], 97%; at panel of 442 kinases [3], 88%; at panel of 442 kinases [4], 100%; at panel of 442 kinases [5] it was 100%. For the same molecule, the remaining activity at 10 µM at panel of 442 kinases [1] (10 µM, read-out: TRKA (% of control at 10 µM)) was determined as 80%; at panel of 442 kinases [2] (setting [6]), 100%; on panel of 442 kinases [3] (setting [6]) it was 100%; on panel of 442 kinases [4] (10 µM, read-out: PYK2 (% of control at 10 µM)), 100%; at panel of 442 kinases [5] (10 µM, read-out: TYRO3 (% of control at 10 µM)) it was 100%.
`FC(F)c1nc2ccccc2n1-c1nc(N2CCOCC2)nc(N2CCOCC2)n1` [ZSTK474, 2-(difluoromethyl)-1-[4,6-di(4-morpholinyl)-1,3,5-triazin-2-yl]-1H-benzimidazole]: the remaining activity at 1 µM was determined as 100% at panel of 442 kinases [1]; 100% on panel of 442 kinases [2]; 91% on panel of 442 kinases [3]; 100% at panel of 442 kinases [4]; 88% on panel of 442 kinases [5].
